{"source": "patent US20120225852A1", "about": "“USE OF STEROID COMPOUNDS” (priority 2009, published 2012)", "key": {"[1]": {"system": "MOG peptide-induced experimental autoimmune encephalomyelitis (EAE)", "assay": "MOG peptide-induced EAE, treatment from the day of EAE induction", "format": "in vivo, C57BL/6 mice", "text": "EAE is an autoimmune condition of the central nervous system (CNS) and results from infiltration of the central nervous system by destructive autoreactive T lymphocytes and subsequent demyelination and axonal and neuronal degeneration.\n(§1) Acute EAE was induced in C57BL/6 mice by immunizing them against the pathogenic myelin oligodendrocyte glycoprotein (MOG) peptide (amino acids 35-55). […] Mice were monitored daily in a blinded fashion for clinical symptoms (paralysis). Tissues (brain, spinal cord, DLNs) were collected in order to perform histological evaluation (staining with H&E on brain and spinal cord sections) and ex vivo cultures for measurement of T cell responses and cytokine release."}, "naïve CD4+ T cells": {"system": "naïve CD4+ T cells", "assay": "Naive CD4+ T cells under Treg cell generating conditions", "format": "cell-based"}, "[2]": {"system": "response to OVA in EAE-induced mice", "assay": "EAE mice treated for 15 days, then immunized with OVA/CFA", "format": "in vivo, C57BL/6 mice", "method": "Treatment stopped and mice were then injected with OVA/CFA (Complete Freund's Adjuvant).\nInstead, the response to a new antigen that the mice are exposed to is enhanced."}, "Naive CD4+ T cells": {"system": "Naive CD4+ T cells", "assay": "Naive CD4+ T cells under Th17 cell polarizing conditions", "format": "cell-based"}, "[3]": {"system": "EAE in C57BL/6 Rag−/− recipients", "assay": "Adoptive transfer of CD4+ T cells from treated EAE donors into C57BL/6 Rag-/- recipients", "format": "in vivo, C57BL/6 Rag−/− mice"}, "[4]": {"system": "Draining lymph node cells from mice induced to develop EAE", "assay": "Immune responses of mice with established EAE treated from day 13 (DLN cells to MOG35-55, cell subsets)", "format": "in vivo, C57BL/6 mice", "text": "as §1, with “the animals” for “them”, “35-55). Mice were left untreated until disease symptoms were apparent (score 1-2) at around day 12.” for “35-55).”"}, "[5]": {"system": "purified CD4+ T cells from unprimed DO11.10 TCR Tg mice", "assay": "Purified CD4+ T cells with mitomycin C-treated splenocytes and OVA peptide 323-339", "format": "cell-based", "conditions": "OVA peptide 323-339; FIG. 2", "text": "(§2) The decreased proliferative response of CD4^+ T cells was not due to increased cell death as evident by similar numbers of CD4^+ 7AAD^− cells in all cultures after flow-cytometric analysis (FIG. 4)."}, "[6]": {"system": "experimental autoimmune encephalomyelitis (EAE)", "assay": "MOG peptide-induced EAE, treatment from the day of EAE onset", "format": "in vivo, C57BL/6 mice", "conditions": "2 mg/mouse i.p. daily from EAE onset until day 26", "method": "(§3) Tests were also carried out to discover whether DHEA and its spiro-analogs were protective after the onset of experimental autoimmune encephalomyelitis (EAE). For these tests, acute EAE was induced in C57BL/6 mice, as previously described. […] Mice were monitored daily in a blinded fashion for clinical symptoms (paralysis). Tissues (brain, spinal cord, DLNs) were collected in order to perform histological evaluation (staining with H&E on brain and spinal cord sections) and ex vivo cultures for measurement of T cell responses and cytokine release."}, "[7]": {"system": "ongoing EAE in recipient mice", "assay": "Adoptive transfer of CD4+ T cells from treated EAE donors into recipients with ongoing EAE", "format": "in vivo"}, "[8]": {"system": "purified CD4+ T cells from unprimed BALB/c mice", "assay": "Purified CD4+ T cells stimulated with α-CD3/α-CD28", "format": "cell-based", "conditions": "non antigen-specific stimulation; FIG. 3", "text": "as §2"}, "[9]": {"system": "allergic airway inflammation", "assay": "Mouse model of allergic asthma (OVA/alum sensitization, aerosolized OVA)", "format": "in vivo, BALB/c mice", "method": "BALB/c mice were sensitized with 0.01 mg chicken ovalbumin (OVA) in 0.2 ml alum intraperitoneally on days 0 and 12, and were exposed to aerosolized OVA (5% for 20 min) on days 18-20."}, "EAE": {"system": "EAE", "assay": "EAE after cessation of 15 days of treatment, 45 additional days of monitoring", "format": "in vivo, C57BL/6 mice", "text": "The mice continued to be monitored daily for clinical signs of EAE for 45 additional days thereafter."}, "[10]": {"system": "Draining lymph node cells from mice induced to develop EAE", "assay": "Ex vivo cytokine secretion of draining lymph node cells to MOG35-55, mice treated from EAE onset", "format": "in vivo, C57BL/6 mice", "conditions": "treatment from EAE onset", "method": "as §3\nAlso tested were the cytokine secretion of lymphoid cells (T cells) to MOG35-55 peptide from the mice that had been induced to develop EAE."}, "[11]": {"system": "Draining lymph node cells from mice induced to develop EAE", "assay": "Ex vivo response of draining lymph node cells to MOG35-55, mice treated from EAE induction", "format": "in vivo, C57BL/6 mice", "conditions": "treatment from EAE induction", "text": "as §1\nAlso tested were the proliferative response and cytokine secretion of lymphoid cells (T cells) to MOG35-55 peptide from the mice that had been induced to develop EAE. […] In addition, the secretion of the inflammatory cytokine IL-17 was increased (FIG. 9d), but its absolute increase was extremely low in comparison to the IFN-γ increase."}, "[12]": {"conditions": "2 mg/mouse i.p. daily from EAE induction, in comparison to the control, FIG. 7"}}}
{"smiles": "C[C@]12CC[C@H](O)CC1=CC[C@@H]1[C@@H]2CC[C@]2(C)C(=O)CC[C@@H]12", "note": "[DHEA, dehydroepiandrosterone]", "values": [{"measurement": "degree of paralysis", "setting": "[1]; 2 mg/mouse i.p. daily from EAE induction until day 26, vs PBS", "value": "decreased"}, {"measurement": "clinical course", "setting": "[1]; 2 mg/mouse i.p. daily from EAE induction until day 26, FIG. 6", "value": "improvement"}, {"measurement": "mean maximum score", "setting": "[1]; 2 mg/mouse i.p. daily from EAE induction until day 26, FIG. 7", "value": "decrease"}, {"measurement": "incidence of disease", "setting": "[1]; [12]", "value": "low incidence"}, {"measurement": "onset of disease", "setting": "[1]; [12]", "value": "delayed onset"}, {"measurement": "inflammation in the spinal cord", "setting": "[1]; 2 mg/mouse i.p. daily from EAE induction, H&E, FIG. 8", "value": "decreased inflammation"}, {"measurement": "protection against MOG peptide-induced EAE", "setting": "[1]; overall conclusion, treatment from EAE induction", "value": "conferred protection"}, {"measurement": "proliferation", "setting": "naïve CD4+ T cells; Treg cell generating conditions, 5 days, FIG. 39", "value": "increased"}, {"measurement": "number of Foxp3+ Treg cells", "setting": "naïve CD4+ T cells; rIL-2, with or even without rTGF-β1, 5 days, FIG. 38", "value": "significant increase"}, {"measurement": "production of IFN-γ", "setting": "[2]; after OVA/CFA immunization", "value": "increased"}, {"measurement": "T cell response to OVA ex vivo (3H-Thymidine incorporation)", "setting": "[2]; after OVA/CFA immunization, FIG. 40", "value": "substantially increased"}, {"measurement": "EAE phenotype after end of treatment and OVA/CFA injection", "setting": "[2]; in comparison to control mice", "value": "stable phenotype without any deterioration"}, {"measurement": "protection from EAE", "setting": "[2]; treated 15 days from shortly after disease onset, then OVA/CFA", "value": "clearly protected"}, {"measurement": "number of CD4+ IL-10-secreting T cells", "setting": "Naive CD4+ T cells; among Th17 differentiating cells, 4 days, FIG. 37", "value": "significant increase"}, {"measurement": "number of CD4+ IL-17-secreting T cells", "setting": "Naive CD4+ T cells; and rIL-6, 4 days, vs RPMI, FIG. 36", "value": "increase"}, {"measurement": "ex vivo proliferation to MOG35-55", "setting": "[3]; DLN cells of Rag−/− recipients, FIG. 33a", "value": "substantially decreased"}, {"measurement": "production of IFN-γ", "setting": "[3]; DLN cells of Rag−/− recipients, FIG. 33b", "value": "decreased production"}, {"measurement": "production of IL-17", "setting": "[3]; DLN cells of Rag−/− recipients, FIG. 33c", "value": "decreased production"}, {"measurement": "EAE scores induced in recipients", "setting": "[3]; after pertussis toxin injections, FIGS. 31 and 32", "value": "very low EAE scores"}, {"measurement": "pathogenic immune response and symptoms", "setting": "[4]; overall conclusion, mice with ongoing EAE", "value": "significantly suppressed"}, {"measurement": "proliferation to MOG35-55 peptide", "setting": "[4]; treatment from day 13, FIG. 19a", "value": "significantly decreased"}, {"measurement": "amounts of IFN-γ produced", "setting": "[4]; treatment from day 13, FIG. 19b", "value": "substantially decreased"}, {"measurement": "amounts of IL-17 produced", "setting": "[4]; treatment from day 13, FIG. 19c", "value": "substantially decreased"}, {"measurement": "IL-10+ Treg cells", "setting": "[4]; treatment from day 13, FIG. 20", "value": "significantly increased"}, {"measurement": "secretion of IL-10", "setting": "[4]; treatment from day 13, FIG. 19d", "value": "increased"}, {"measurement": "proliferation", "setting": "[5]", "value": "significantly decreased"}, {"measurement": "secretion of IFN-γ", "setting": "[5]", "value": "significantly decreased"}, {"measurement": "secretion of IL-2", "setting": "[5]", "value": "significantly decreased"}, {"measurement": "degree of paralysis", "setting": "[6]", "value": "decreased"}, {"measurement": "clinical course", "setting": "[6]; FIG. 11", "value": "improvement/reversal"}, {"measurement": "mean maximum score", "setting": "[6]; FIG. 12", "value": "decrease"}, {"measurement": "mean maximum EAE score", "setting": "[7]; CD4+ T cell transfer into recipients with ongoing EAE, FIGS. 28 and 29", "value": "significant decrease"}, {"measurement": "proliferation to MOG35-55 ex vivo", "setting": "[7]; DLN cells and splenocytes of recipients, FIG. 30", "value": "significantly decreased"}, {"measurement": "effect on α-CD3/α-CD28 stimulated CD4+ T cells", "setting": "[8]", "value": "same suppressive effect"}, {"measurement": "levels of OVA-specific IgE", "setting": "[9]; 2 mg/mouse", "value": "significantly decreased"}, {"measurement": "levels of OVA-specific IgG1", "setting": "[9]; 2 mg/mouse", "value": "significantly decreased"}, {"measurement": "levels of OVA-specific IgG2a", "setting": "[9]; 2 mg/mouse", "value": "significantly decreased"}, {"measurement": "numbers of CD3+CD4+ CD25+ Foxp3+ T cells (T regulatory cells)", "setting": "[9]; 2 mg/mouse", "value": "substantially increased"}, {"measurement": "numbers of suppressive CD11c+PDCA-1+ plasmacytoid dendritic cells (pDCs)", "setting": "[9]; 2 mg/mouse", "value": "substantially increased"}, {"measurement": "numbers of eosinophils in the bronchoalveolar lavage (BAL)", "setting": "[9]; 2 mg/mouse on days 0,1,2,12,13,14,18,19,20, vs PBS-treated mice, FIG. 14a", "value": "significantly decreased"}, {"measurement": "numbers of lymphomononuclear cells in the bronchoalveolar lavage (BAL)", "setting": "[9]; 2 mg/mouse, vs PBS-treated mice, FIG. 14a", "value": "significantly decreased"}, {"measurement": "lung leukocytic infiltration", "setting": "[9]; 2 mg/mouse, FIG. 14b", "value": "significantly decreased"}, {"measurement": "OVA-specific T cell proliferation", "setting": "[9]; draining lymph nodes, FIG. 14c", "value": "significantly decreased"}, {"measurement": "allergic airway inflammation, Th2 responses and B cell responses", "setting": "[9]; overall conclusion of Example 3", "value": "suppress"}, {"measurement": "protection from EAE development after cessation of treatment", "setting": "EAE; treated 15 days from around day 13, monitored 45 additional days, FIGS. 34 and 35", "value": "remained protected"}, {"measurement": "disease score after cessation of treatment", "setting": "EAE; treated 15 days, monitored 45 additional days, vs control mice", "value": "remained unchanged"}, {"measurement": "amounts of IL-10 produced", "setting": "[10]; FIG. 13a", "value": "greatly increased"}, {"measurement": "secretion of IFN-γ", "setting": "[10]; FIG. 13b", "value": "substantially decreased"}, {"measurement": "secretion of IL-17", "setting": "[10]; FIG. 13c", "value": "substantially decreased"}, {"measurement": "pathogenic immune response", "setting": "[11]; overall conclusion", "value": "significantly suppressed"}, {"measurement": "proliferation to MOG35-55 peptide", "setting": "[11]; FIG. 9a", "value": "significantly decreased"}, {"measurement": "amounts of IFN-γ produced", "setting": "[11]; FIG. 9b", "value": "substantially increased"}, {"measurement": "amounts of IL-10 produced", "setting": "[11]; FIG. 9c", "value": "substantially increased"}, {"measurement": "secretion of IL-17", "setting": "[11]; absolute increase extremely low compared to IFN-γ, FIG. 9d", "value": "increased"}]}
